Measurements published in patent US7012078B2, “2-aminopyridines containing fused ring substituents” (Pfizer Inc., priority 1997, dated 2006).
Where a name gives a salt, the structure may show the parent alone.

`Nc1cccc(-c2ccc(OCCN3CCC(N)C3)c3ccccc23)n1` (centres unmarked) (as salt: hydrochloride) [Example 18, 6-{4-[2-(3-Amino-pyrrolidin-1-yl)-ethoxy]-naphthalen-1-yl}-pyridin-2-ylamine] and `CC(C)CN1CCC(Oc2ccc(-c3cccc(N)n3)c3ccccc23)C1` (centres unmarked) (as salt: hydrochloride) [Example 31, 6-[4-(1-Isobutyl-pyrrolidin-3-yloxy)-naphthalen-1-yl]-pyridin-2-ylamine] cannot be ordered by melting point: 70 to 90 °C for the first, 78 to 85 °C for the second.

`Nc1cccc(-c2ccc(OC3CN(Cc4cccnc4)C3)c3ccccc23)n1` (as salt: hydrochloride) [Example 72, 6-[4-(1-Pyridin-3-ylmethyl-azetidin-3-yloxy)-naphthalen-1-yl]-pyridin-2-ylamine] and `Nc1cccc(-c2ccc(OC3CCN(Cc4ccco4)C3)c3ccccc23)n1` (centres unmarked) (as salt: hydrochloride) [Example 32, 6-[4-(1-Furan-2-ylmethyl-pyrrolidin-3-yloxy)-naphthalen-1-yl]-pyridin-2-ylamine] cannot be ordered by melting point: 150 to 180 °C for the first, 140 to 160 °C for the second.

Work on `Nc1cccc(-c2ccc(OC3CCCCC3N)c3ccccc23)n1` (centres unmarked) (as salt: hydrochloride) [Example 63, 6-[4-(2-Amino-cyclohexyloxy)-naphthalen-1-yl]-pyridin-2-ylamine] yielded a melting point of 218 to 230 °C.
